# Key:
# Format in all cases: functional
# Neisseria meningitidis [1] = experiment: Antimicrobial activity against Neisseria meningitidis by broth microdilution method
# Neisseria meningitidis [2] = experiment: Antimicrobial activity against Neisseria meningitidis assessed as susceptible isolate by broth microdilution method
# Neisseria meningitidis [3] = experiment: Antimicrobial activity against Neisseria meningitidis assessed as resistant isolate by broth microdilution method
Compound,MIC (Neisseria meningitidis [1]) [mg/L],MIC50 (Neisseria meningitidis [1]) [mg/L],MIC90 (Neisseria meningitidis [1]) [mg/L],Activity (Neisseria meningitidis [2]) [%],Activity (Neisseria meningitidis [3]) [%]
CC[C@H]1OC(=O)[C@H](C)[C@@H](O[C@H]2C[C@@](C)(OC)[C@@H](O)[C@H](C)O2)[C@H](C)[C@@H](O[C@@H]2O[C@H](C)C[C@H](N(C)C)[C@H]2O)[C@](C)(O)C[C@@H](C)CN(C)[C@H](C)[C@@H](O)[C@]1(C)O [AZITHROMYCIN],≤ 0.015,0.06,0.12,100,–
CO/N=C(\C(=O)N[C@@H]1C(=O)N2C(C(=O)O)=C(CSc3nc(=O)c(O)nn3C)CS[C@H]12)c1csc(N)n1 [CEFTRIAXONE],–,≤ 0.015,≤ 0.015,100,–
O=C(O)c1cn(C2CC2)c2cc(N3CCNCC3)c(F)cc2c1=O [CIPROFLOXACIN],–,–,–,97.1,1.9
CC[C@H]1OC(=O)[C@H](C)[C@@H](O[C@H]2C[C@@](C)(OC)[C@@H](O)[C@H](C)O2)[C@H](C)[C@@H](O[C@@H]2O[C@H](C)C[C@H](N(C)C)[C@H]2O)[C@](C)(OC)C[C@@H](C)C(=O)[C@H](C)[C@@H](O)[C@]1(C)O [CLARITHROMYCIN],≤ 0.015,0.03,0.12,–,–
CC[C@H]1OC(=O)[C@H](C)[C@@H](O[C@H]2C[C@@](C)(OC)[C@@H](O)[C@H](C)O2)[C@H](C)[C@@H](O[C@@H]2O[C@H](C)C[C@H](N(C)C)[C@H]2O)[C@](C)(O)C[C@@H](C)C(=O)[C@H](C)[C@@H](O)[C@]1(C)O [ERYTHROMYCIN],≤ 0.03,0.12,0.25,–,–
C[C@H]1COc2c(N3CCN(C)CC3)c(F)cc3c(=O)c(C(=O)O)cn1c23.C[C@H]1COc2c(N3CCN(C)CC3)c(F)cc3c(=O)c(C(=O)O)cn1c23.O [LEVOFLOXACIN],≤ 0.008,≤ 0.008,≤ 0.008,97.1,1.9
CN(C)c1ccc(O)c2c1C[C@H]1C[C@H]3[C@H](N(C)C)C(O)=C(C(N)=O)C(=O)[C@@]3(O)C(O)=C1C2=O [MINOCYCLINE],≤ 0.015,0.12,0.25,100,0
CC1(C)S[C@@H]2[C@H](NC(=O)Cc3ccccc3)C(=O)N2[C@H]1C(=O)O [PENICILLIN G],≤ 0.015,0.03,0.12,84.5,0
CO[C@H]1/C=C/O[C@@]2(C)Oc3c(C)c(O)c4c(O)c(c(/C=N/N5CCN(C)CC5)c(O)c4c3C2=O)NC(=O)/C(C)=C\C=C\[C@H](C)[C@H](O)[C@@H](C)[C@@H](O)[C@@H](C)[C@H](OC(C)=O)[C@@H]1C [RIFAMPIN],–,0.015,0.03,100,0
CC[C@H]1OC(=O)[C@@](C)(F)C(=O)[C@H](C)[C@@H](O[C@@H]2O[C@H](C)C[C@H](N(C)C)[C@H]2O)[C@](C)(OC)C[C@@H](C)C(=O)[C@H](C)[C@H]2N(CCCCn3cc(-c4cccc(N)c4)nn3)C(=O)O[C@]12C [SOLITHROMYCIN],≤ 0.015,≤ 0.015,≤ 0.015,–,–
CC[C@H]1OC(=O)[C@H](C)C(=O)[C@H](C)[C@@H](O[C@@H]2O[C@H](C)C[C@H](N(C)C)[C@H]2O)[C@](C)(OC)C[C@@H](C)C(=O)[C@H](C)[C@H]2N(CCCCn3cnc(-c4cccnc4)c3)C(=O)O[C@]12C [TELITHROMYCIN],≤ 0.015,≤ 0.015,0.03,–,–

# From ChEMBL document CHEMBL1649331, “Determination of CEM-101 activity tested against clinical isolates of Neisseria meningitidis from a worldwide collection” (2010)
